Experimental data as given in ChEMBL document CHEMBL3853342, “Design, synthesis and biological evaluation of novel benzo-α-pyrone containing piperazine derivatives as potential BRAFV600E inhibitors” (Bioorg Med Chem Lett, 2016).

What was measured:
[1] = Antiproliferative activity against human A375 cells assessed as cell growth inhibition after 24 hrs by MTT assay; assay type: functional, cell-based; details: A-375, 24 h
[2] = Antiproliferative activity against human WM1361 cells assessed as cell growth inhibition after 24 hrs by MTT assay; assay type: functional, cell-based; details: WM1361, 24 h
[3] = Antiproliferative activity against human WM266.4 cells harboring BRAF V600E mutant assessed as cell growth inhibition after 24 hrs by MTT assay; assay type: functional, cell-based; details: WM 266-4, 24 h
[4] = target: Serine/threonine-protein kinase B-raf (Homo sapiens, UniProt P15056, V600E); test: Inhibition of human recombinant GST-tagged BRAF catalytic domain (416 to 766 residues) V600E mutant expressed in baculovirus expression system preincubated for 1 hr followed by human full length recombinant N-terminal His-tagged MEK1 substrate addition measured after 25 mins by gel electrophoresis method
Serine/threonine-protein kinase B-raf, sequence (P15056 2-766 V600E limits assumed): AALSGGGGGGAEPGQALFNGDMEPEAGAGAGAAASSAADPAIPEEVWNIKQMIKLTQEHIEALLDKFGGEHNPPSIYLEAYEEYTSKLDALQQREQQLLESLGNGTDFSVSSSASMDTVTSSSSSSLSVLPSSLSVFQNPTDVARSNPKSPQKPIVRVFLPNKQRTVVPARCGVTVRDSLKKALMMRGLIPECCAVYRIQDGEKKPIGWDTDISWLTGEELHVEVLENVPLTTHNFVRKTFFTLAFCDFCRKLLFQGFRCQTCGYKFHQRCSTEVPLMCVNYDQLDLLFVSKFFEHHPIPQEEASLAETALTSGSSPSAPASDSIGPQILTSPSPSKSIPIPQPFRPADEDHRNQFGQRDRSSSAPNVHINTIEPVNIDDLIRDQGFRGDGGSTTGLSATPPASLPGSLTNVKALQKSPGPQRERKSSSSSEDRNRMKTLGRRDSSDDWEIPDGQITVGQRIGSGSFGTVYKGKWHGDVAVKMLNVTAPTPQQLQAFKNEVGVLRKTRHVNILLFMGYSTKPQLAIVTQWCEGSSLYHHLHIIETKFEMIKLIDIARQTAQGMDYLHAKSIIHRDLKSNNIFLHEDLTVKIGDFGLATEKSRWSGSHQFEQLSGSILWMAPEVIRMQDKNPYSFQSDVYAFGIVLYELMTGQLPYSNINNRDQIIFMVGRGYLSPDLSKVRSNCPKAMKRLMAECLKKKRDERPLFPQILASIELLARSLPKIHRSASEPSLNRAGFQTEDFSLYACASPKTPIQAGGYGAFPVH

[5] = Cytotoxicity against human 293T cells assessed as cell growth inhibition after 24 hrs by MTT assay; assay type: toxicity, cell-based, HEK-293T

O=c1oc2ccccc2c(N2CCN(c3ccc(Cl)c(Cl)c3)CC2)c1CO
IC50 [1]: 7.66 µM
IC50 [2]: 42.7 µM
IC50 [3]: 6.04 µM
IC50 [4]: 2.56 µM
CC50 at 24 h [5]: > 50 µM

O=c1oc2ccccc2c(N2CCN(C(c3ccc(F)cc3)c3ccc(F)cc3)CC2)c1CO
IC50 [1]: 3.16 µM
IC50 [2]: 29.4 µM
IC50 [3]: 2.57 µM
IC50 [4]: 0.68 µM
CC50 at 24 h [5]: > 50 µM

CCCS(=O)(=O)Nc1ccc(F)c(C(=O)c2c[nH]c3ncc(-c4ccc(Cl)cc4)cc23)c1F [VEMURAFENIB]
IC50 [1]: 0.21 µM
IC50 [2]: 1.86 µM
IC50 [3]: 0.07 µM
CC50 at 24 h [5]: > 50 µM
